System: HSV-1
Test: HSV-1 infection of Vero 76 cells, viral DNA hybridization capture assay
Type: cell-based
Details: Human alphaherpesvirus 1; HSV-1 (MOI=0.001) in Vero 76 cells, 40–48 hours incubation, HSV DNA hybridization with chemiluminescence detection
Method: Vero 76 cells were maintained in MEM with Earle's salts, L-glutamine, 8% FBS (Hyclone, A-1111-L) and 100 units/mL Penicillin-100 μg/mL Streptomycin. For assay conditions, FBS was reduced to 2%. Cells are seeded into 96-well tissue culture plates at a density of 5×10^4 cells/well after being incubated for 45 min at 37° C. in the presence of HSV-1 or HSV-2 (MOI=0.001). Test compounds are added to the wells and the plates are incubated at 37° C. for 40–48 hours. Cell lysates are prepared as follows: media was removed and replaced with 150 μL/well 0.2 N NaOH with 1% Igepal CA 630 or NP-40. Plates were incubated up to 14 days at room temperature in a humidified chamber to prevent evaporation.
For the detection probe, a gel-purified, digoxigenin-labeled, […] PCR fragment of the HSV UL-15 sequence was utilized. PCR conditions included 0.5 μM primers, 180 μM dTTP, 20 μM dUTP-digoxigenin (Boehringer Mannheim 1558706), 200 μM each of dATP, dCTP, and dGTP, 1×PCR Buffer II (Perkin Elmer), 2.5 mM, MgCl2, 0.025 units/μL of AmpliTaq Gold polyerase (Perkin Elmer), and 5 ng a gel-purified HSV DNA per 100 μL Extension conditions were 10 min at 95° C., followed by 30 cycles of 95° C. for 1 min, 55° C. for 30 sec, and 72° C. for 2 min. The amplification was completed with a 10-min incubation at 72° C. Primers were selected to amplify a 728 bp probe spanning a section of the HSV1 UL15 open reading frame (nucleotides 249–977). Single-stranded transcripts were purified with Promega M13 Wizard kits. The final product was mixed 1:1 with a mixture of 6 M GuSCN, 100 mM EDTA and 200 μg/mL herring sperm DNA and stored at 4° C.
The capture DNA plasmid (HSV UL13 region in pUC) was linearized by cutting with Xba I, denatured for 15 min at 95° C. and diluted immediately into Reacti-Bind DNA Coating Solution (Pierce, 17250, diluted 1:1 with TE buffer, pH 8) at 1 ng/μL 75 μl/well were added to Corning (#3922 or 9690) white 96-well plates and incubated at room temperature for at least 4 hrs before washing twice with 300 μL/well 0.2×SSC/0.05% Tween-20 (SSC/T buffer). The plates were then incubated overnight at room temperature with 150 μL/well 0.2 N NaOH, 1% IGEPAL and 10 μg/mL herring sperm DNA.
Twenty-seven (27) μL of cell lysate was combined with 45 μL of hydridization solution (final concentration: 3M GuSCN, 50 mM EDTA, 100 μg/ml salmon sperm DNA, 5× Denhardt's solution, 0.25× APE, and 5 ng of the digoxigenin-labeled detection probe). APE is 1.5 M NH4-acetate, 0.15 M NH4H2phosphate, and 5 mM EDTA adjusted to pH 6.0. Mineral oil (50 μL) was added to prevent evaporation. The hybridization plates were incubated at 95° C. for 10 minutes to denature the DNA, then incubated at 42° C. overnight. The wells were washed 6× with 300 μL/well SSC/T buffer then incubated with 75 μL/well anti-digoxigenin-HRP-conjugated antibody (Boehringer Mannheim 1207733, 1:5000 in TE) for 30 min at room temperature. The wells were washed 6× with 300 μL/well with PBS/0.05% Tween-20 before 75 μL/well SuperSignal LBA substrate (Pierce) was added. The plates were incubated at room temperature for 30 minutes and chemiluminescence was measured in a Wallac Vietor reader.
The following results were obtained for HSV-1.

Row | Compound | IC50
1 | Cc1csc(Nc2nccc(-c3c(-c4ccc(F)cc4)nn4c(NC5CCCC5)nccc34)n2)n1 [Example 15, N-Cyclopentyl-2-(4-fluorophenyl)-3-{2-[(4-methyl-1,3-thiazol-2-yl)amino]pyrimidin-4-yl}pyrazolo[1,5-c]pyrimidin-7-amine] | > 40000 nM
2 | COCCNc1nccc2c(-c3ccnc(NC4CCCC4)n3)c(-c3cccc(Cl)c3)nn12 [Example 7, 2-(3-Chlorophenyl)-3-[2-(cyclopentylamino)-4-pyrimidinyl]-N-(2-methoxyethyl)pyrazolo[1,5-c]pyrimidin-7-amine] | 300 nM
3 | Fc1ccc(-c2nn3c(NC4CCCC4)nccc3c2-c2ccnc(NC3CCCC3)n2)cc1 [Example 1, N-Cyclopentyl-3-[2-(cyclopentylamino)pyrimidin-4-yl]-2-(4-fluorophenyl)pyrazolo[1,5-c]pyrimidin-7-amine] | 720 nM
4 | Fc1ccc(-c2nn3c(NC4CCCC4)nccc3c2-c2ccnc(NC3CC3)n2)cc1 [Example 2, N-Cyclopentyl-3-[2-(cyclopropylamino)pyrimidin-4yl]-2-(4-fluorophenyl)pyrazolo[1,5-c]pyrimidin-7-amine] | 5500 nM
5 | CC(C)COc1ccc(-c2nn3c(NC4CCCC4)nccc3c2-c2ccnc(NC3CCCC3)n2)cc1 [Example 26, N-Cyclopentyl-3-[2-(cyclopentylamino)pyrimidin-4-yl]-2-(4-isobutoxyphenyl)pyrazolo[1,5-c]pyrimidin-7-amine] | 500 nM
6 | COCCOc1ccc(-c2nn3c(NC4CCCC4)nccc3c2-c2ccnc(NC3CCCC3)n2)cc1 [Example 27, N-Cyclopentyl-3-[2-(cyclopentylamino)pyrimidin-4-yl]-2-[4-(2-methoxyethoxy)phenyl]pyrazolo[1,5-c]pyrimidin-7-amine] | 1000 nM
7 | Clc1cccc(-c2nn3cnccc3c2-c2ccnc(NC3CCCC3)n2)c1 [Example 3, 4-[2-(3-Chlorophenyl)pyrazolo[1,5-c]pyrimidin-3-yl]-N-cyclopentylpyrimidin-2-amine] | 3900 nM
8 | Oc1nccc2c(-c3ccnc(NC4CCCC4)n3)c(-c3cccc(Cl)c3)nn12 [Example 8, 2-(3-Chlorophenyl)-3-[2-(cyclopentylamino)-4-pyrimidinyl]pyrazolo[1,5-c]pyrimidin-7-ol] | 2500 nM
9 | Fc1ccc(-c2nn3c(NC4CCCC4)nccc3c2-c2ccnc(Nc3ccccc3)n2)cc1 [Example 13, 3-(2-Anilinopyrimidin-4-yl)-N-cyclopentyl-2-(4-fluorophenyl)pyrazolo-[1,5-c]pyrimidin-7-amine] | 1500 nM
10 | CSc1nc(NC2CCCC2)n2nc(-c3ccccc3)c(-c3ccnc(F)c3)c2n1 [Example 9, N-Cyclopentyl-8-(2-fluoro-4-pyridinyl)-2-(methylsulfanyl)-7-phenylpyrazolo[1,5-a][1,3,5]triazin-4-amine] | 7100 nM
11 | Fc1ccc(CNc2nccc(-c3c(-c4ccc(F)cc4)nn4c(NC5CCCC5)nccc34)n2)cc1 [Example 17, N-Cyclopentyl-3-{2-[(4-fluorobenzyl)amino]pyrimidin-4-yl}-2-(4-fluorophenyl)pyrazolo[1,5-c]pyrimidin-7-amine] | 2000 nM
12 | COc1ccc(-c2nn3c(NC4CCCC4)nccc3c2-c2ccnc(NC3CCCC3)n2)cc1 [Example 21, N-Cyclopentyl-3-[2-(cyclopentylamino)pyrimidin-4-yl]-2-(4-methoxyphenyl)pyrazolo[1,5-c]pyrimidin-7-amine] | 400 nM
13 | c1cc(-c2c(-c3ccc(OCC4CC4)cc3)nn3c(NC4CCCC4)nccc23)nc(NC2CCCC2)n1 [Example 23, N-Cyclopentyl-3-[2-(cyclopentylamino)pyrimidin-4-yl]-2-[4-(cyclopropylmethoxy)phenyl]pyrazolo[1,5-c]pyrimidin-7-amine] | 500 nM
14 | CCCCNc1nccc(-c2c(-c3ccc(F)cc3)nn3c(NC4CCCC4)nccc23)n1 [Example 12, 3-[2-(Butylamino)pyrimidin-4-yl]-N-cyclopentyl-2-(4-fluorophenyl)pyrazolo[1,5-c]pyrimidin-7-amine] | 1000 nM
